Assay results taken from ChEMBL document CHEMBL5230157, “The natural anthraquinone dye purpurin exerts antibacterial activity by perturbing the FtsZ assembly” (Bioorg Med Chem, 2021).

Biological target: T1, Cell division protein FtsZ (Bacillus subtilis, UniProt A5Z1V5)
T1 sequence (A5Z1V5 whole entry): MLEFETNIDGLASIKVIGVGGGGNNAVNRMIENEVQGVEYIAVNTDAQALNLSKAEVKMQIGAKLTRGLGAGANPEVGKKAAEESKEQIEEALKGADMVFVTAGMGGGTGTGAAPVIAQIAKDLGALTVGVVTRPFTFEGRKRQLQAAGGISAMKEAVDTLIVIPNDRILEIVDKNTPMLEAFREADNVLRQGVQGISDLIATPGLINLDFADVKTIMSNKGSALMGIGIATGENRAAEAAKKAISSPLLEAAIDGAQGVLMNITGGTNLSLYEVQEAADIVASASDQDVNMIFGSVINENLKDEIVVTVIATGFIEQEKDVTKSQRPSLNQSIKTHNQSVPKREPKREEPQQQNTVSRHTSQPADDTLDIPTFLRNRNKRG
Assay: Binding affinity to Bacillus subtilis FtsZ assessed as dissociation constant of intrinsic tryptophan quenching incubated for 30 mins by double reciprocal plot analysis

CC1=CC(=O)c2c(O)cccc2C1=O [PLUMBAGIN]
Kd: 15.8 µM
